According to paper PMC5453931, “Cathelicidin-trypsin inhibitor loop conjugate represents a promising antibiotic candidate with protease stability” (Scientific Reports, 2017):
Where a SMILES comes first, the peptide text is derived from it. Bridges are numbered along the chain shown (N, C = ends).

Key:
[1] = test system: established C. albicans biofilm; experiment: Biofilm disruption assay, established biofilm (XTT, PI/SYBR Green I); format: cell-based
Procedure: TIH3F that has the best antifungal activity among the four peptides was chosen to examine the effect on the C. albicans biofilm formation and the established biofilm using previously described method with minor modifications. In the biofilm inhibition assay, after the incubation at 35 °C, C. Albicans was diluted to 1 × 10^6 CFU/mL in RPMI-1640 medium. Then 2 mL culture was added to each well of 6-well plates with coverslips at the bottom, and incubated at 35 °C in a humid chamber for 3 h. Non-adherent cells were then washed away by PBS, and series concentrations of TIH3F (0, 1, 2, 4 μg/mL) were added into the plate, with amphotericin B as control. The formation of the biofilm was determined by the XTT Cell Proliferation and Cytotoxicity Kit (KeyGEN BioTECH, Nanjing, China) after 36-h incubation. In the biofilm disruption assay, the biofilm was preformed as described above but with a longer incubation time up to 72 h. Then TIH3F and amphotericin B of series concentrations (0, 2.5, 5, 10, 25, 50 μg/mL) was added after non-adherent cells were washed out. The measurement of remaining biofilm was then determined. In order to further confirm the antifungal effect of TIH3F against C. albicans encased in biofilms, the established biofilm was treated with TIH3F (0, 5, 50 μg/mL), washed three times with PBS, and finally stained with 1 mL 1000-fold diluted PI/SYBR Green I at 30 °C in the dark for 20 min. After washing with PBS, the plate was immediately photographed with fluorescence microscope.

trypsin = experiment: Protease stability, RP-HPLC analysis of degradation; format: in vitro ADME
Procedure: To further examine the stability of TIH3F incubated with enzymes (trypsin and protease K) over time, the LC analysis of peptide degradation over a series of time spans (0, 6, 12, 24 h) was performed. TIH3F and protease solution were prepared in 0.1 M NH4HCO3 buffer (pH 8.2) to final molar ratio of 300:1, and incubated at 37 °C for 6, 12, and 24 h, respectively. Then 150 μL aliquots were taken at given time intervals, diluted with 150 μL of water/acetonitrile (60/40 v/v) containing 2% TFA, and analyzed by RP-HPLC (Thermo Scientific Syncronis C18 column, 250 mm × 4.6 mm, 5 μm), eluted with acetonitrile/water (containing 0.1% TFA) mixture of linear gradient concentration.

trypsin or proteinase K = settings: peptide:protease 300/1 mol/mol, 30 min, 37 °C, then 1 × MIC 2 h with E. coli, S. aureus, C. albicans; colony counting; Fig. 3E

For `CC[C@H](C)[C@@H]1NC(=O)[C@H](CO)NC(=O)[C@H](CCCCN)NC(=O)[C@H]([C@@H](C)O)NC(=O)[C@H](Cc2c[nH]c3ccccc23)NC(=O)[C@@H](N)CSSC[C@@H](C(=O)N[C@@H](CCCCN)C(=O)N[C@@H](Cc2ccccc2)C(=O)N[C@@H](Cc2ccccc2)C(=O)N[C@@H](CCCCN)C(=O)N[C@@H](CCCNC(=N)N)C(=O)N[C@@H](Cc2ccccc2)C(=O)N[C@@H](Cc2ccccc2)C(=O)N[C@@H](CCCCN)C(=O)N[C@@H](CO)C(=O)N[C@@H](Cc2ccccc2)C(=O)N[C@@H](CCCNC(=N)N)C(=O)N[C@@H](CCCNC(=N)N)C(=O)N[C@@H](C)C(=O)N[C@@H](Cc2ccccc2)C(=O)N[C@@H](CCCCN)C(=O)N[C@@H](CCCCN)C(=O)N[C@@H](Cc2ccccc2)C(N)=O)NC(=O)[C@@H]2CCCN2C(=O)[C@H](CCCCN)NC(=O)[C@@H]2CCCN2C(=O)[C@@H]2CCCN2C1=O` [TIH3F] (H-CWTKSIPPKPCKFFKRFFKSFRRAFKKF-NH2; disulfide 1-11), the “damage of established C. albicans biofilm” value ([1]; 5 μg/mL, biofilm preformed 72 h, XTT metabolic activity, Fig. 2B) was 50%, the “killing of C. albicans in preformed biofilm” value ([1]; 50 μg/mL, PI/SYBR Green I staining, fluorescence microscopy, Fig. 2C) was “destroy all of the cell membranes” and the “RP-HPLC absorbance of the peptide before trypsin incubation” value (trypsin; pure peptide, 0 h, C18 RP-HPLC, Fig. 4E) was 600 mAU. The degradation by trypsin (trypsin; trypsin, 300:1, 0.1 M NH4HCO3 pH 8.2, 37 °C, 6 h, RP-HPLC, Fig. 4) was “a little degradation”, the “intact peptide remaining after trypsin incubation” value (trypsin; trypsin, 300:1, 0.1 M NH4HCO3 pH 8.2, 37 °C, up to 24 hours, RP-HPLC, Fig. 4) was “remained half” and the “RP-HPLC absorbance of the peptide after trypsin incubation” value (trypsin; trypsin, peptide:protease 300:1, 0.1 M NH4HCO3 pH 8.2, 37 °C, 6 h, C18 RP-HPLC, Fig. 4F) was 500 mAU. For the same compound, the “antimicrobial activity after treatment with trypsin or proteinase K” value (trypsin or proteinase K) was “negligible antimicrobial activity decrease”.
